Source: patent US12303517B1, “Oral testosterone therapy” (Lipocine, Inc., priority 2016, dated 2025)

Key:
[1] = Single fixed dose dosing regimen examples for safety and efficacy (serum T Cmax / Cavg criteria), with food; format: in vivo, human
[2] = Randomized double-blind placebo-controlled dose escalating clinical study of oral T13 in hypogonadal males (serum testosterone pharmacokinetics); format: in vivo, human; conditions: for T Cavg (±SD) / T Cmax (±SD) / % with Cavg/day > 300 ng/dL / % with Cmax/dose < 1,500 ng/dL: hypogonadal males; for % with Cavg/day > 300 ng/dL / % with Cmax/dose < 1,500 ng/dL: serum T
Protocol: Dosage Form Example B of Composition 4 with dosing regimen (Regimen #. 1-9) of dosing category BID-equal dose with daily dose range 500-1250 mg of T13 in this invention were used for a clinic study of Testosterone Therapy for hypogonadal males.
This Clinical Study is a Randomized Double-Blind, Placebo-Controlled Dose Escalating Study of the Safety, Efficacy, Tolerability, and Pharmacokinetics of Testosterone Therapy in Hypogonadal Males. This clinic study was a single and multiple, ascending-dose study that was designed to determine the optimal starting, titration (if appropriate), or single fixed dose for safety and efficacy targeted by US FDA. The study also verified the time for testosterone levels to reach steady state and identified a suitable single fixed dose dosing regimen that satisfies unmet need for safety and efficacy for oral TRT.
This study was carried out with conditions of a single-center, randomized, double-blind, placebo-controlled, ascending multiple-dose, and serial-group in adult hypogonadal male subjects. The objectives of this study were: • a) To assess the safety, efficacy, and tolerability of escalating single and multiple oral doses of T13 dosage forms in hypogonadal males • b) To determine the pharmacokinetics (PK) of testosterone (T), DHT, TT, DHTT, and estradiol (E2) after single and multiple oral doses of TT dosage forms in hypogonadal males • c) To identify single fixed dose dosing regimen satisfying USFDA target, not needing to titrate for restoring average serum T levels in hypogonadal males to the normal T range.
The dosing regimen for this clinic study ranged from 500 mg daily dose to 1250 mg daily dose with […]. Observed pharmacokinetic parameters (T, DHT, T13, DHTT, and E2) after single and multiple oral doses of T13 dosage forms in the patients were recorded by each daily dose in the report. […] The overall analyzed results of this clinic study were plotted according to % of patients for safety (Cmax <1,500 ng/dL) and efficacy (Cavg >300 ng/dL) with a variety of dosing regimen. Its results are shown in the below table.

[3] = Regimen 12, BID-equal dose (AM/PM) 375/375 mg T13, with food with at least 10 g of fat
[4] = Regimen 13, BID-equal dose (AM/PM) 400/400 mg T13, with food with at least 10 g of fat
[5] = Regimen 14, BID-equal dose (AM/PM) 450/450 mg T13, with food with at least 10 g of fat
[6] = Regimen 15, BID-equal dose (AM/PM) 500/500 mg T13, with food with at least 10 g of fat
[7] = Regimen 16, BID-equal dose (AM/PM) 550/550 mg T13, with food with at least 10 g of fat
[8] = Regimen 17, BID-equal dose (AM/PM) 575/575 mg T13, with food with at least 10 g of fat
[9] = Regimen 18, BID-equal dose (AM/PM) 625/625 mg T13, with food with at least 10 g of fat
[10] = 750 mg T13 QD dose at steady state (14 days)
[11] = daily dose 500 mg T13 (equivalent T dose 298 mg)
[12] = daily dose 700 mg T13 (equivalent T dose 417 mg)
[13] = daily dose 750 mg T13 QD (equivalent T dose 446 mg)
[14] = daily dose 800 mg T13 (equivalent T dose 476 mg)
[15] = daily dose 900 mg T13 (equivalent T dose 536 mg)
[16] = daily dose 1000 mg T13 QD (equivalent T dose 595 mg)
[17] = daily dose 1100 mg T13 (equivalent T dose 655 mg)
[18] = daily dose 1150 mg T13 (equivalent T dose 685 mg)
[19] = daily dose 1250 mg T13 (equivalent T dose 744 mg)

## CCCCCCCCCCCCC(=O)O[C@H]1CC[C@H]2[C@@H]3CCC4=CC(=O)CC[C@]4(C)[C@H]3CC[C@]12C [T13, testosterone tridecanoate]
[1]; [3]
  Cavg > 300 ng/dL ≥75% patients: Yes
  Cavg > 300 ng/dL ≥80% patients: No
  Cmax > 1500 ng/dL <15% patients: Yes
  Cmax > 1500 ng/dL <20% patients: Yes
  Cmax > 1800 ng/dL <5% patients: Yes
  Cmax > 1800 ng/dL <10% patients: Yes
  Cmax > 2500 ng/dL <2% patients: Yes
  Cmax > 2500 ng/dL none of patients: Yes
[1]; [4]
  Cavg > 300 ng/dL ≥75% patients: Yes
  Cavg > 300 ng/dL ≥80% patients: Yes
  Cmax > 1500 ng/dL <15% patients: Yes
  Cmax > 1500 ng/dL <20% patients: Yes
  Cmax > 1800 ng/dL <5% patients: Yes
  Cmax > 1800 ng/dL <10% patients: Yes
  Cmax > 2500 ng/dL <2% patients: Yes
  Cmax > 2500 ng/dL none of patients: Yes
[1]; [5]
  Cavg > 300 ng/dL ≥75% patients: Yes
  Cavg > 300 ng/dL ≥80% patients: Yes
  Cmax > 1500 ng/dL <15% patients: Yes
  Cmax > 1500 ng/dL <20% patients: Yes
  Cmax > 1800 ng/dL <5% patients: Yes
  Cmax > 1800 ng/dL <10% patients: Yes
  Cmax > 2500 ng/dL <2% patients: Yes
  Cmax > 2500 ng/dL none of patients: Yes
[1]; [6]
  Cavg > 300 ng/dL ≥75% patients: Yes
  Cavg > 300 ng/dL ≥80% patients: Yes
  Cmax > 1500 ng/dL <15% patients: Yes
  Cmax > 1500 ng/dL <20% patients: Yes
  Cmax > 1800 ng/dL <5% patients: Yes
  Cmax > 1800 ng/dL <10% patients: Yes
  Cmax > 2500 ng/dL <2% patients: Yes
  Cmax > 2500 ng/dL none of patients: Yes
[1]; [7]
  Cavg > 300 ng/dL ≥75% patients: Yes
  Cavg > 300 ng/dL ≥80% patients: Yes
  Cmax > 1500 ng/dL <15% patients: Yes
  Cmax > 1500 ng/dL <20% patients: Yes
  Cmax > 1800 ng/dL <5% patients: Yes
  Cmax > 1800 ng/dL <10% patients: Yes
  Cmax > 2500 ng/dL <2% patients: Yes
  Cmax > 2500 ng/dL none of patients: Yes
[1]; [8]
  Cavg > 300 ng/dL ≥75% patients: Yes
  Cavg > 300 ng/dL ≥80% patients: Yes
  Cmax > 1500 ng/dL <15% patients: Yes
  Cmax > 1500 ng/dL <20% patients: Yes
  Cmax > 1800 ng/dL <5% patients: Yes
  Cmax > 1800 ng/dL <10% patients: Yes
  Cmax > 2500 ng/dL <2% patients: Yes
  Cmax > 2500 ng/dL none of patients: Yes
[1]; [9]
  Cavg > 300 ng/dL ≥75% patients: Yes
  Cavg > 300 ng/dL ≥80% patients: Yes
  Cmax > 1500 ng/dL <15% patients: Yes
  Cmax > 1500 ng/dL <20% patients: Yes
  Cmax > 1800 ng/dL <5% patients: Yes
  Cmax > 1800 ng/dL <10% patients: Yes
  Cmax > 2500 ng/dL <2% patients: Yes
  Cmax > 2500 ng/dL none of patients: Yes
[2]; [10]
  T Cavg (±SD): 352 (±41) ng/dL
  T Cmax (±SD): 822 (±254) ng/dL
[2]; 1000 mg QD dose at steady state (14 days)
  T Cavg (±SD): 405 (±148) ng/dL
[2]; 1000 mg T13 QD dose at steady state (14 days)
  T Cmax (±SD): 930 (±326) ng/dL
[2]; [11]
  % with Cavg/day > 300 ng/dL: 36.3%
  % with Cmax/dose < 1,500 ng/dL: 100.0%
[2]; [12]
  % with Cavg/day > 300 ng/dL: 71.5%
  % with Cmax/dose < 1,500 ng/dL: 100.0%
[2]; [13]
  % with Cavg/day > 300 ng/dL: 76.2%
  % with Cmax/dose < 1,500 ng/dL: 99.5%
[2]; [14]
  % with Cavg/day > 300 ng/dL: 80.0%
  % with Cmax/dose < 1,500 ng/dL: 98.8%
[2]; [15]
  % with Cavg/day > 300 ng/dL: 85.0%
  % with Cmax/dose < 1,500 ng/dL: 96.7%
[2]; [16]
  % with Cavg/day > 300 ng/dL: 88.1%
  % with Cmax/dose < 1,500 ng/dL: 92.8%
[2]; [17]
  % with Cavg/day > 300 ng/dL: 90.0%
  % with Cmax/dose < 1,500 ng/dL: 85.6%
[2]; [18]
  % with Cavg/day > 300 ng/dL: 90.7%
  % with Cmax/dose < 1,500 ng/dL: 80.0%
[2]; [19]
  % with Cavg/day > 300 ng/dL: 91.6%
  % with Cmax/dose < 1,500 ng/dL: 66.8%
[2]; single fixed dose, no titration, 750 mg to 1100 mg daily dose of T13
  US FDA T level target for safety and efficacy for testosterone replacement therapy: satisfies US FDA T level target for safety and efficacy
